Earlier results in patent US20190274964A1, “NEW IMPROVED COMPOSITION OF RACECADOTRIL” (JOHNSON & JOHNSON CONSUMER INC., priority 2016, published 2019).

Test system: castor-oil induced diarrhea
Settings: rats

## O=C(O)CNC(=O)C(CS)Cc1ccccc1 (centres unmarked) [thiorphan]
  Inhibition of castor-oil induced diarrhea: inhibit castor-oil induced diarrhea
Intravenous administration, most prominent during first two hours following challenge
  Protection against diarrhea as measured by cumulative stool weight and time to onset: dose-dependent protection against diarrhea

## CC(=O)SCC(Cc1ccccc1)C(=O)NCC(=O)OCc1ccccc1 (centres unmarked) [Racecadotril, benzyl N-[3-(acetylthio)-2 benzylpropanoyl] glycinate]
  Inhibition of castor-oil induced diarrhea: inhibit castor-oil induced diarrhea
pre-treatment p.o.
  Cumulative stool weight following challenge with castor oil: reduction in cumulative stool weight
pre-treatment p.o., dose-response relationship could not be established
  Time to onset: significantly delayed
